The values below come from ChEMBL document CHEMBL4806962, “Methods and Compositions for Treating Cancer” (2020).

The structures appear in SMILES notation. Active and inactive are the calls of the source. The calls are words filed in the database; no cut-off is given here.

Experiment [1] can be described thus: Effects of compound on anti-CD3/CD28-stimulated human PBMCs assessed as CD8-positive cells population at 10 uM after 2 days by flow cytometric analysis. The experiment is classed as functional, PBMC. As to conditions: time 2 day. Background: In flow cytometry, cells or beads pass a laser one at a time.
Experiment [2] is described as follows: Ratio of FC for induction of INF-gamma production in anti-CD3/CD28-stimulated human PBMCs at 1 uM after 24 hrs in presence of PBF-509 and MRS-1754 to FC for induction of INF-gamma production in anti-CD3/CD28-stimulated human PBMCs at 1 uM after 24 hrs in presence of PBF-509 and absence of MRS-1754. The experiment is classed as functional, PBMC.
Experiment [3] is described as follows: Effects of compound on anti-CD3/CD28-stimulated human PBMCs assessed as CD4-positive cells population at 10 uM after 4 hrs by flow cytometric analysis. Format: functional, PBMC.
Experiment [4] deals with PBMC. The experiment is described as follows: Effect of compound on human PBMCs assessed as reduction in TGIT expression in CD8-positive T cells after 1 day by flow cytometric analysis. Format: functional, cell-based. Particulars: dose 1.25-5 µM.
Experiment [5] has as its target Probable G-protein coupled receptor 174 (Homo sapiens, UniProt Q9BXC1). Description: Inverse agonist activity at GPR174 in anti-CD3/CD28-stimulated human PBMCs assessed as reduction in FoxP3-positive Helios-positive nTreg cells after 7 days by flow cytometric analysis. The experiment is classed as functional, tissue-based. Particulars: PBMC, filed as inverse agonist, dose 3-30 µM, time 7.0 day.

Experiment [6] has as its system PBMC. The experiment is described as follows: Effect of compound on human PBMCs assessed as reduction in CTLA4 expression in naive Treg cells after 1 day by flow cytometric analysis. The experiment is classed as functional, cell-based. Particulars: dose 0.19-6 µM.
The subject of experiment [7] is PBMC. Description: Effect of compound on human PBMCs assessed as reduction in CTLA4 expression in memory Treg cells after 1 day by flow cytometric analysis. Format: functional, cell-based. Particulars: dose 0.19-6 µM.
A short description of experiment [8]: Ratio of FC for induction of IL-2 production in anti-CD3/CD28-stimulated human PBMCs at 1 uM after 24 hrs in presence of ZM-241385 and MRS-1754 to FC for induction of IL-2 production in anti-CD3/CD28-stimulated human PBMCs at 1 uM after 24 hrs in presence of ZM-241385 and absence of MRS-1754. The experiment is classed as functional, PBMC.
The test system of experiment [9] is PBMC. Description: Effects of compound on TNF-alpha production in anti-CD3/CD28-stimulated human PBMCs assessed as fold increase in TNF-alpha level at 30 uM after 2 days by ELISA. Format: functional, tissue-based. As to conditions: time 2.0 day. For orientation: An ELISA detects its analyte on a solid surface through an enzyme-linked reagent.

Sequence of Probable G-protein coupled receptor 174 (Q9BXC1 whole entry): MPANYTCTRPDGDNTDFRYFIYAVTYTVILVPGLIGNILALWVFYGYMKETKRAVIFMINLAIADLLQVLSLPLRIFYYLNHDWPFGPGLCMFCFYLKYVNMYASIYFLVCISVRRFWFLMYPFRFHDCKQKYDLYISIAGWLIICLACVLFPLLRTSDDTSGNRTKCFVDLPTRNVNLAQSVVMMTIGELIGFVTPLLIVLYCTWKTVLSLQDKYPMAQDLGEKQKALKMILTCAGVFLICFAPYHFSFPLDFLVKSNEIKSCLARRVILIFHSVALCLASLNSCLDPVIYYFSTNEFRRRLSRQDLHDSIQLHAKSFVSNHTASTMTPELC

For the compound `CC1CCN(c2cc(N3CCN(S(=O)(=O)c4ccccc4)CC3)c([N+](=O)[O-])cc2F)CC1`, the Activity in experiment [1] is 27.5%; in [3], 46.2%; in the experiment on PBMC [4], “Dose-Dependent Effect”; in experiment [5], “Dose-Dependent Effect”; with PBMC [6], “Dose-Dependent Effect”; in the experiment with PBMC [7] it was “Dose-Dependent Effect”. Further, the Ratio in experiment [2] is recorded as 1; in experiment [8], 0.7. Further, in the experiment with PBMC [9], the outcome was Active.
